Consider six compounds from patent US20160297763A1, “Heteroaryl hydroxamic acid derivatives and their use in the treatment, amelioration or prevention of a viral disease” (priority 2011, published 2016).

In test [1] the target is PB2 cap binding domain (CBD) (Influenza A virus, UniProt Q9Q0V1). Briefly: biochemical. More on the design: species or system avian H5N1 influenza virus.
For test [2], the system named is influenza A virus A/Aichi/2/68 (H3N2). In words: Cytopathic effect (CPE) assay H3N2. Particulars: Influenza A virus; for inhibition at 2 µM: H3N2, activity conc 2 (μM per method); for inhibition at 2 µM / inhibition at 5 µM / inhibition at 20 µM: read-out: CPE H3N2 reduction (%); for inhibition at 5 µM: H3N2, activity conc 5 (μM per method); for inhibition at 20 µM: H3N2, activity conc 20 (μM per method). The class given is cell-based, influenza A virus (H3N2) on MDCK cells. The method in brief: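 MDCK cells infected with A/Aichi/2/68 (H3N2) at MOI 0.05 in trypsin-containing medium, compound (generally 25 μM and 250 μM, 1% DMSO) added together with virus; 48 hrs at 37° C. Viability by ATP luminescence; % CPE reduction = infected-treated minus infected-untreated RLU, normalized to uninfected-treated viability.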

For another test, the target named is PA-Nter (Influenza A virus, UniProt P31343). Briefly: Biacore PA-Nter binding. Particulars: activity conc 50. A general note: SPR reads the build-up and loss of mass on a sensor chip optically.

Chain of PB2 cap binding domain (CBD) (Q9Q0V1 318-483 limits assumed): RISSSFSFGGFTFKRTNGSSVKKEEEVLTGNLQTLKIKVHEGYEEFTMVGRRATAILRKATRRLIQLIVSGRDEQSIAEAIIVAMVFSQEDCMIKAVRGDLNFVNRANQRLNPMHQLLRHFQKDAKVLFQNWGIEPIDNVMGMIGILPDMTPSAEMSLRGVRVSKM

Compound `Cc1c(-c2ccc(F)cc2F)sc2nc(N)[nH]c(=O)c12` [SAV-7610] came in with a Kd in test [1] of 3.8 µM. For the same compound, in test [2], the inhibition at 2 µM is -1.6%. This compound registered an EC50 in “ALPHA screen” of 0.62 µM.
As to `Cc1c(-c2ccccc2)sc2nc(N)[nH]c(=O)c12` [SAV-7475], the “Biacore PA-Nter Binding (RU)” value on PA-Nter came out at 13.16 RU. In test [1], this compound gave a Kd of 4.6 µM. For the same compound, the inhibition at 5 µM in test [2] came to 8.9%. The IC50 in test [2] (H3N2, read-out: CPE H3N2 IC50) was determined as 21 µM.
Turning to `Cc1c(-c2cccc(C(N)=O)c2)sc2nc(N)[nH]c(=O)c12` [SAV-7599], binding in test [1] was characterised by a dissociation constant (Kd) of 5.3 µM. Besides, in test [2], the inhibition at 20 µM was -0.7%.
Regarding `CC1=C(c2cccc(F)c2)SC2N=C(N)NC(=O)C12` (stereo not drawn) [SAV-7606], the Kd in test [1] was 8 µM. For the same compound, the inhibition at 5 µM in test [2] is 21.8%.
As for `Cc1c(-c2ccc(F)c(C#N)c2)sc2nc(N)[nH]c(=O)c12` [SAV-7611], the dissociation constant Kd in test [1] was 1.1 µM. For the same compound, the inhibition at 2 µM in test [2] is -1%.
For `Cc1c(-c2ccc(Cl)cc2)sc2nc(N)[nH]c(=O)c12` [SAV-7579], the affinity in test [1], expressed as Kd, was 0.27 µM. Further, the inhibition at 20 µM in test [2] was 11.3%.

One may read the Kd as the free concentration of one partner at which half of the binding sites on the other are occupied at equilibrium, for simple one-to-one binding. Read a high Kd as a looser complex. Usually EC50 stands for the concentration at which the effect is half-maximal. A word on the IC50: it is the concentration that inhibits the measured activity by half.
